{"source": "paper PMC3119039", "about": "(2011)", "molecular_target": "Cdk2^as (Homo sapiens, UniProt P24941, F80G)", "experiment": "histone H1 kinase assay with [γ-32P]ATP, purified Cdk2/cyclin A", "format": "biochemical", "data": [{"smiles": "Cc1cccc(Cc2nn(C(C)(C)C)c3ncnc(N)c23)c1", "note": "[3-MB-PP1]", "values": [{"measurement": "IC50", "result": "~3", "unit": "nM"}]}]}
